Assay results published in article PMC12546632, “The role of cytochrome bc1 inhibitors in future tuberculosis treatment regimens” (Nature Communications, 2025).
pIC50: −log10 of the molar value. Values after ≈ are worked out from the molar mass of the structure shown. Values joined by “and” are separate entries in the source; they are usually repeats but may differ in a detail not shown here. Equal values may be shown once. Read-outs that look alike come from different tables or passages of the source.

Tests used:
[1] = system: clinical isolate, N1283; set-up: species or system Mycobacterium tuberculosis; details: in vivo
[2] = system: M. tuberculosis H37Rv; assay: MIC90 determination, H37Rv; assay type: cell-based, Mycobacterium tuberculosis
[3] = system: H37Rv_CydBd-KO; assay: microbe, parasite or virus in culture; assay type: cell-based, Mycobacterium tuberculosis
[4] = system: M. tuberculosis clinical isolates; assay: microbe, parasite or virus in culture; assay type: cell-based, Mycobacterium tuberculosis
[5] = system: M. tuberculosis H37Rv; assay: MBC99.9 determination, H37Rv; assay type: cell-based, Mycobacterium tuberculosis
[6] = system: H37Rv_CytBd-KO; assay: microbe, parasite or virus in culture; assay type: cell-based, Mycobacterium tuberculosis; details: read-out: MBC99.9 (H37Rv_CytBd-KO)
[7] = system: WT H37Rv; assay type: cell-based, Mycobacterium tuberculosis; details: biological replicates
[8] = system: N1283 clinical isolate; assay type: cell-based, Mycobacterium tuberculosis; details: biological replicates
[9] = system: M. tuberculosis ΔcydAB (Parent); assay: microbe, parasite or virus in culture; assay type: cell-based
[10] = assay type: in vitro ADME
Method: (§1) Details of the metabolic stability in liver microsomes and hepatocytes together with CYP inhibition in human liver microsomes and plasma protein binding have been published previously. The CYP induction assay was conducted by Puracyp Inc (www.puracyp.com). Studies were designed to evaluate the effect of compounds on the activation of human PXR (hPXR). The DPX2TM cells harbour the human PXR gene (NR1I2) and a luciferase reporter gene linked to two promoters identified in the human CYP3A4 gene, namely XREM and PXRE. These cells were seeded in a 96-well plate. Twenty-four hours after seeding, the cells were treated with various concentrations of compounds then incubated for an additional 24 h. Following this, the number of viable cells per well were determined using Promega’s CellTiter Fluor Cytotoxicity Assay. Briefly, One-Glo was added to the same wells and reporter gene activity was assessed. The luminescence light intensity was directly proportional to the extent of PXR activation and accompanying gene transcription in the DPX2TM cells.

[11] = biological target: human PXR (hPXR) (Homo sapiens, UniProt O75469); assay type: in vitro ADME
Sequence of human PXR (hPXR) (O75469 whole entry): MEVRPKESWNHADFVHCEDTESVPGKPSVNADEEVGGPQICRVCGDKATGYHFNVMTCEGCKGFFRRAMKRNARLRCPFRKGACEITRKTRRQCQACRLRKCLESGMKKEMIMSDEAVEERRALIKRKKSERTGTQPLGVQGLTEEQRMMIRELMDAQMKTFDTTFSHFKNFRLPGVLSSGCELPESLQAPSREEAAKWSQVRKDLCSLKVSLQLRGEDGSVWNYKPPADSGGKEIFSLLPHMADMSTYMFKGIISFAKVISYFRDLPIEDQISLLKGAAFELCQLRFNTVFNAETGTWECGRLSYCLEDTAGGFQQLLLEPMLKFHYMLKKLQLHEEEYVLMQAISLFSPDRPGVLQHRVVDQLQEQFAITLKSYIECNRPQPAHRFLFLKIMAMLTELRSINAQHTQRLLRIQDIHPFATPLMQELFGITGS
Method: as §1

[12] = assay type: in vitro ADME; details: hepatocytes
[13] = biological target: T1, 3A4 (Homo sapiens, UniProt P08684); assay type: in vitro ADME
T1 construct: from tissue; host or cells: human liver microsomes
T1 sequence (P08684 whole entry): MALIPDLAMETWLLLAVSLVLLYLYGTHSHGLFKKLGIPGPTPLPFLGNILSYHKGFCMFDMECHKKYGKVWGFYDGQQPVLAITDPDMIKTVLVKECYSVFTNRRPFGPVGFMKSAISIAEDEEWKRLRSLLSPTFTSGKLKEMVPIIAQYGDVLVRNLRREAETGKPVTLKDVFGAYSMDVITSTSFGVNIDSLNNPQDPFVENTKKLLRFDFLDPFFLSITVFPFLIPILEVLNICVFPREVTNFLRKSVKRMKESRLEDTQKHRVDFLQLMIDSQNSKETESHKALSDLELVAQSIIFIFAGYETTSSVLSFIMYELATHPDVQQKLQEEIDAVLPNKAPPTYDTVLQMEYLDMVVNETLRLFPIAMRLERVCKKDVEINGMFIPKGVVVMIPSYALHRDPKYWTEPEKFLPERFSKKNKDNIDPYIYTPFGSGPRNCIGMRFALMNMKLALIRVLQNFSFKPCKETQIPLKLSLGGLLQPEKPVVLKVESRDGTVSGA

[14] = biological target: T2, 2C19 (Homo sapiens, UniProt P33261); assay type: in vitro ADME
T2 construct: from tissue; host or cells: human liver microsomes
T2 sequence (P33261 whole entry): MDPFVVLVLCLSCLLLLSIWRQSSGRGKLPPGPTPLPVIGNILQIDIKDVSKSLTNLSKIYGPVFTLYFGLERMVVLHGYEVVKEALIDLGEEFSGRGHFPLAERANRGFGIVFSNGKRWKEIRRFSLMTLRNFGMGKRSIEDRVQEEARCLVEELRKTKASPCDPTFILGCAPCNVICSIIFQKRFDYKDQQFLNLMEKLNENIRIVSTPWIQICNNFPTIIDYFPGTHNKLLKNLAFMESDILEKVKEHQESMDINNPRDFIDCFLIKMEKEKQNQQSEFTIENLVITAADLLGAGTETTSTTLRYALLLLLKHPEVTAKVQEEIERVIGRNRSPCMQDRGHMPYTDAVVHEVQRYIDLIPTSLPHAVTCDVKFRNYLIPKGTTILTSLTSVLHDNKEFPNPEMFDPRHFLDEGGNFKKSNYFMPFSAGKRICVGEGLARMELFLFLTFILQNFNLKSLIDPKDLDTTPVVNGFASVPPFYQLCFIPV

[15] = biological target: T3, 2C8 (Homo sapiens, UniProt P10632); assay type: in vitro ADME
T3 construct: from tissue; host or cells: human liver microsomes
T3 sequence (P10632 whole entry): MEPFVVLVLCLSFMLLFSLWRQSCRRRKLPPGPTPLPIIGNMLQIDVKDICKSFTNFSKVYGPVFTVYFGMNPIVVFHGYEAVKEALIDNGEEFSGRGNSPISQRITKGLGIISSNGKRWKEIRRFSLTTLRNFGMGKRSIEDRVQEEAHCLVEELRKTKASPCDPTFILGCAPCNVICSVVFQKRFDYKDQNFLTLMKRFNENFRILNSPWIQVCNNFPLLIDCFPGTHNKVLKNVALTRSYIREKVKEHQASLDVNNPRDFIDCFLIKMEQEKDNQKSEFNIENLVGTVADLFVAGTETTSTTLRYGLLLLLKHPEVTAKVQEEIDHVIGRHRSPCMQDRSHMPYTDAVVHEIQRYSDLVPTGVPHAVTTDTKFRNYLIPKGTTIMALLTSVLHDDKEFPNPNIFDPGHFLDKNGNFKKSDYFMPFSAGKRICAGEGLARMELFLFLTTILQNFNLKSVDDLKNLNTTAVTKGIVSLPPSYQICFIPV

[16] = biological target: T4, 2C9 (Homo sapiens, UniProt P11712); assay type: in vitro ADME
T4 construct: from tissue; host or cells: human liver microsomes
T4 sequence (P11712 whole entry): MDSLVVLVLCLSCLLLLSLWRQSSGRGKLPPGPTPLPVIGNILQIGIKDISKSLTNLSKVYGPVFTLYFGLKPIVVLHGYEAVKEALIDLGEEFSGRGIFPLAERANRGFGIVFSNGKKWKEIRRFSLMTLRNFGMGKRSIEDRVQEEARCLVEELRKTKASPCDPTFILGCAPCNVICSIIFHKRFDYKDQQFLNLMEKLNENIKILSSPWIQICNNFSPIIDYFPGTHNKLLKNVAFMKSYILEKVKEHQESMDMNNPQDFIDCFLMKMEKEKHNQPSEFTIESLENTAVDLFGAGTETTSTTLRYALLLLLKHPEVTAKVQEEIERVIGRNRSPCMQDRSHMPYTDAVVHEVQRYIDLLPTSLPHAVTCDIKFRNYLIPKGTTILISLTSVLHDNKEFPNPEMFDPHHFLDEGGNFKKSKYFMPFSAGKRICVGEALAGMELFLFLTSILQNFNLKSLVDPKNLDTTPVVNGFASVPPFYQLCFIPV

[17] = biological target: T5, 2D6 (Homo sapiens, UniProt P10635); assay type: in vitro ADME
T5 construct: from tissue; host or cells: human liver microsomes
T5 sequence (P10635 whole entry): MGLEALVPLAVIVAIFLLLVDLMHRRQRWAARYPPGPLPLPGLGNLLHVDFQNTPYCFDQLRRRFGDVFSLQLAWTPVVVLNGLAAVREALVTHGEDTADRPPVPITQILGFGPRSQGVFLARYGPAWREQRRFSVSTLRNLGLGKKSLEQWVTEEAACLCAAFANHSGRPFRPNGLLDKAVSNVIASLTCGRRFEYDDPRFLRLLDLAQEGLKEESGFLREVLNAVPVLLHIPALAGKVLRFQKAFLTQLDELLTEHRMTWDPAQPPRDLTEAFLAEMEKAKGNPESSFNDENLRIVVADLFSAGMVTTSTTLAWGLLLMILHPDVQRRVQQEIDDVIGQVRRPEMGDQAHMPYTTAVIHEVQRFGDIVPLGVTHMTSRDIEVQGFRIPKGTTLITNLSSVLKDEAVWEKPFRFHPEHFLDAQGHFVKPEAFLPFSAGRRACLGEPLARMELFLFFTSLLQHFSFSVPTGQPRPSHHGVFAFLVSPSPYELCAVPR

[18] = biological target: T6, 1A2 (Homo sapiens, UniProt P05177); assay type: in vitro ADME
T6 construct: from tissue; host or cells: human liver microsomes
T6 sequence (P05177 whole entry): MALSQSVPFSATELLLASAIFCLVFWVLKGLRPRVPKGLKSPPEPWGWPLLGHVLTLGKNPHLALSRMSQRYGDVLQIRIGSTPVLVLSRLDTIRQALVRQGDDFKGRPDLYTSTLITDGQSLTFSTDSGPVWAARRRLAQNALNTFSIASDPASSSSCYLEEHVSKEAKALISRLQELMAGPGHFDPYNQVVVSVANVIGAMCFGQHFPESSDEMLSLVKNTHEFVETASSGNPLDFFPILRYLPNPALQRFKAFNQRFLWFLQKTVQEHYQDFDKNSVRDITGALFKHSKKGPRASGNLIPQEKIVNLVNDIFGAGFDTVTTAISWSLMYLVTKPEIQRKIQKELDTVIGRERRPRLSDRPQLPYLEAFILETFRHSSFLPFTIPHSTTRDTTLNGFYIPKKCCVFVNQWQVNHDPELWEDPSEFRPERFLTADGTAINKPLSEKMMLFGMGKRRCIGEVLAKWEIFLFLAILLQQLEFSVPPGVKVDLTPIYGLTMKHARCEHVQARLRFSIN

[19] = system: HepG2 cells
[20] = system: Salmonella typhimurium strains TA98 and TAMix
[21] = mouse, in vivo, iv, 1 mg/kg
[22] = system: M. tuberculosis HN878; details: telacebec added to BPaC, after 4 weeks of treatment; cited from earlier work

## CCc1nc2ncc(C)cn2c1C(=O)NCc1ccc(N2CCN(S(=O)(=O)C(F)(F)F)C=N2)c(F)c1 [JNJ-4052]
[1]
  CFU reduction: 1.6 log10
[2]; read-out: MIC90 (H37Rv)
  MIC90: 7 nM (≈ 3.69 ng/mL)
[2]; strain H37Rv (Institut Pasteur, lineage 4), read-out: MIC90
  MIC90: 6 nM (≈ 3.17 ng/mL)
[3]
  MIC90: 7 nM (≈ 3.69 ng/mL)
[4]; strain Mtb-0617 (Karonga, lineage 3)
  MIC90: 1.3 nM (≈ 0.686 ng/mL)
[4]; strain Mtb-2703 (Karonga, lineage 3)
  MIC90: 0.13 nM (≈ 0.0686 ng/mL)
[4]; strain Mtb-4779 (Karonga, lineage 2)
  MIC90: 0.29 nM (≈ 0.153 ng/mL)
[4]; strain Mtb-4980 (Karonga, lineage 4)
  MIC90: 0.7 nM (≈ 0.369 ng/mL)
[4]; strain Mtb-6787 (Karonga, lineage 4)
  MIC90: 0.71 nM (≈ 0.375 ng/mL)
[4]; strain Mtb-7489 (Karonga, lineage 1)
  MIC90: 2.5 nM (≈ 1.32 ng/mL)
[4]; strain Mtb-7496 (Karonga, lineage 3)
  MIC90: 0.29 nM (≈ 0.153 ng/mL)
[4]; strain Mtb-9271 (Karonga, lineage 4)
  MIC90: 0.2 nM (≈ 0.106 ng/mL)
[4]; strain Mtb-61164 (Karonga, lineage 2)
  MIC90: 0.79 nM (≈ 0.417 ng/mL)
[4]; strain N0054 (Gagneux, lineage 3)
  MIC90: 0.85 nM (≈ 0.448 ng/mL)
[4]; strain N0072 (Gagneux, lineage 1)
  MIC90: 1.2 nM (≈ 0.633 ng/mL)
[4]; strain N1283 (Gagneux, lineage 4)
  MIC90: 0.73 nM (≈ 0.385 ng/mL)
[5]
  MBC: > 1.25 µM
[6]
  MBC: 0.3 µM (≈ 158 ng/mL)
[7]; Conc 8 nM
  CFU counts: 50000000 CFU and 20000000 CFU and 53000000 CFU and 30000000 CFU
[7]; Conc 32 nM
  CFU counts: 17000000 CFU and 12000000 CFU
[7]; Conc 128 nM
  CFU counts: 26000000 CFU and 17000000 CFU
[8]; Conc 8 nM
  CFU counts: 2200000 CFU and 6000000 CFU and 800000 CFU and 200000 CFU
[8]; Conc 32 nM
  CFU counts: 150000 CFU and 400000 CFU and 80000 CFU and 50000 CFU
[8]; Conc 128 nM
  CFU counts: 170000 CFU and 300000 CFU and 90000 CFU and 80000 CFU
[9]; Parent (ΔcydAB)
  MIC50: 0.01 µM (≈ 5.28 ng/mL)
[10]
  Plasma protein binding, Rat (% free): 2.67 % free
[10]; hepatocytes
  Dog Hep Clint: 4.7 µL min-1 106 cells-1
  Human Hep Clint: 6.7 µL min-1 106 cells-1
  Rat Hep Clint: 19 µL min-1 106 cells-1
[10]; microsomes
  Dog LM Clint: < 7.7 µL min-1 mg protein-1
  Human LM Clint: 20.4 µL min-1 mg protein-1
  Mouse LM Clint: 42 µL min-1 mg protein-1
  Rat LM Clint: 16.7 µL min-1 mg protein-1
[11]; 1 µM
  Cyp3A4 ind. (%ctrl): 3.0 %ctrl
[11]; 10 µM
  Cyp3A4 ind. (%ctrl): 21.2 %ctrl
[12]
  Mouse Hep Clint: 12 µL min-1 106 cells-1
[13]
  pIC50: < 4.70
[14]
  pIC50: < 4.70
[15]
  pIC50: < 4.70
[16]
  pIC50: < 4.70
[17]
  pIC50: < 4.70
[18]
  pIC50: < 4.70
[19]
  IC20: 98.8 µM
[20]
  Mutagenicity (AMES II): negative
[21]
  CLp as % LBF: ~ 11 % LBF

## CCc1nc2ccc(Cl)cn2c1C(=O)NCc1ccc(N2CCC(c3ccc(OC(F)(F)F)cc3)CC2)cc1 [telacebec, reference compound]
[7]; Conc 8 nM
  CFU counts: 30000000 CFU and 50000000 CFU
[7]; Conc 32 nM
  CFU counts: 19000000 CFU and 32000000 CFU and 49500000 CFU
[7]; Conc 128 nM
  CFU counts: 20000000 CFU and 17000000 CFU and 41500000 CFU and 12000000 CFU
[8]; Conc 8 nM
  CFU counts: 16000000 CFU and 19000000 CFU and 60000000 CFU and 40000000 CFU
[8]; Conc 32 nM
  CFU counts: 130000 CFU and 900000 CFU and 7000000 CFU and 8000000 CFU
[8]; Conc 128 nM
  CFU counts: 180000 CFU and 380000 CFU and 120000 CFU and 150000 CFU
[9]; Mycobacterium tuberculosis
  MIC50: 0.01 µM (≈ 5.57 ng/mL)
[22]
  reduction in lung bacterial burden compared to BPaC alone: 2 log
